Marks after values point to notes of the source that are not given here.
Assays:
[1] = system: CD44 on human hematopoietic KG1a cells; assay: Flow cytometric analysis of CD44 on KG1a cells; assay type: cell-based; settings: KG1a, neuraminidase (1 hr)
Text: (§1) In a similar set of experiments, we analyzed the effects of 4-F-GlcNAc on selectin ligand expression and function on the human hematopoietic cell line KGla. KGla cells express a distinct HECA-452-reactive CD44 glycoform that functions as both an E- and L-selectin ligand (Dimitroff, C. J. et al. (2001) J. Cell Biol., 53: 1277–1286; Dimitroff, C. J. et al. (2000) Proc. Nat. Acad. Sci., 97(25):13841–46; Sackstein, R. and Dimitroff, C. J. (2000) Blood, 96: 2765–74.), otherwise known as HCELL, respectively. This specialized glycoform represents a major E-selectin and the primary L-selectin ligand on normal CD34+ HPCs and on leukemic cells, and, therefore, is also implicated in the BM homing aspects and growth-related activities of HPCs in vivo, respectively (Id.). We first performed flow cytometric analysis of HECA-452 antigen and CD44 on 4-F-GlcNAc-treated KGla cells. […] Only positive cells, which were those cells with fluorescence above background autofluorescence and fluorochrome-conjugated secondary Ab staining, were analyzed.
(§2) Flow cytometric analysis was performed on human leukocytes utilizing both direct and indirect immunofluorescence staining approaches. All cells utilized for these experiments were washed twice with cold PBS/2%FBS and suspended at 10^7/ml PBS/1% FBS. Primary antibodies, anti-CLA (HECA-452), -CD4, -CD8, CD43 (L60) and PSGL-1 (PL-2) along with the appropriate isotype-matched control antibodies were incubated with the cells for 30 min on ice. Following two washes with PBS/2%FBS, cells were resuspended in PBS/1%FBS and fluorochrome-conjugated secondary antibodies (2 μl) and incubated for 30 min on ice. Cells were washed twice with PBS/2%FBS, resuspended in PBS and flow cytometry was performed on a FACScan apparatus equipped with an argon laser tuned at 488 nm (Becton Dickinson).

[2] = system: P-selectin ligand activity of murine Th1 cells; assay: Flow chamber analysis of P-selectin binding on murine Th1 cells; assay type: cell-based, mouse; settings: neuraminidase treatment alone (0.1 U/ml for 1 hr at 37° C.)
Text: (§3) CD4+ splenocytes were isolated from C57BL-6 mice by anti-murine CD4 L3T4 magnetic bead technology (Miltenyi Biotec) according to manufacturer's protocol. […] Culturing murine T helper cells in the presence of murine IL-12 and anti-murine IL-4 produces selectin binding Th1 cells by up-regulating FucTVII (69, 70) and core 2 enzyme (43–45, 71, 72), both critical for selectin ligand synthesis (i.e. decoration of PSGL-1 (67, 68)), and prevents the production of non-selectin binding Th2 cells (67–72). Th1 cells were also generated from mice deficient in α1,3 fucosyltransferase, FucTVII, and served as negative controls (33, 38, 40). Cells were harvested and re-plated at 2×10^6cells/ml on non-Ab coated plastic with murine IL-2 (20 ng/ml) in the presence or absence of murine IL-12 (10 ng/ml) and anti-murine IL-4 moAb 11B11 (10 μg/ml) for 48 h. […] Glycosylation inhibitors were added to cultures on day 6.5 for 30 hr, after first treating cells with neuraminidase (0.1 U/ml for 1 hr at 37° C.) to remove all cell surface terminal sialic acid resides and E and P-selectin ligand activity. Since selectin ligands are dependent on terminal sialic acid (α2,3 N-acetylneuraminic acid) for activity, this approach allowed for analysis of de novo synthesized selectin ligands in the presence of 0.05 mM 4-F-GlcNAc, N-glycan inhibitors, 0.23 mM swainsonine and 0.02 mM tunicamycin, and 1 mM GlcNAc (negative control).

[3] = system: HCELL/CD44 activity on human hematopoietic KG1a cells; assay: Stamper-Woodruff adhesion assay, L-selectin-dependent lymphocyte adherence to KG1a cells; assay type: cell-based; settings: KG1a, neuraminidase (1 hr)
Text: To study the effects of 4-F-GlcNAc on the function of the L-selectin binding activity of CD44 (HCELL), we employed the shear-based, Stamper-Woodruff adhesion assay to examine the ability of 4-F-GlcNAc-treated KG1a cells to support L-selectin-dependent lymphocyte adherence. This assay is utilized to specifically assess the shear-dependent binding interactions between L-selectin naturally expressed on lymphocytes and HCELL expressed on KG1a cells (Dimitroff, C. J. et al. (2000) Proc. Nat. Acad. Sci., 97(25):13841–46; Sackstein, R. and Dimitroff, C. J. (2000) Blood, 96: 2765–74.). Before treating KG1a cells with 0.05, 0.1 or 0.5 mM 4-F-GlcNAc, we first pretreated KG1a cells with Vibrio cholerae neuraminidase (0.1 U/ml for 1 hr at 37° C.) to cleave all terminal α2,3 sialic acid-bearing residues and eliminate all HCELL activity. Glutaraldehyde-fixed monolayers of KG1a cells that were first treated with Vibrio cholerae neuraminidase (0.1 U/ml for 1 hr at 37° C.) then re-cultured in the presence of 4-F-GlcNAc (0.05–0.5 mM) for 30 hr at 37° C. Metabolic inhibitors swainsonine, an inhibitor of α-mannosidase II, tunicamycin, an inhibitor of N-acetylglucosamine phosphototransferase, were also utilized to compare the relative potencies of known glycosylation inhibitors. Human peripheral blood lymphocytes (5×10^6cells/ml RPMI1640 w/o NaBicarbonate/5%FBS) were overlayed onto KG1a monolayers at 80 rpm for 30 min. at 4° C., and after gently washing in PBS, lymphocytes bound to cell monolayers were fixed in 3% glutaraldehyde. Re-expression of HCELL activity or HECA-452-reactive CD44 on KG1a cells was determined after […] of 4-F-GlcNAc treatment. Bound lymphocytes were quantified at 100× magnification from a minimum of 5 fields from 2 slides, and the mean number of lymphocytes (standard error of the mean) was calculated.

[4] = system: HECA-452 epitopes on human hematopoietic KG1a cells; assay: Flow cytometric analysis of HECA-452 epitopes on KG1a cells; assay type: cell-based; settings: KG1a, neuraminidase (1 hr)
Text: as §1, §2

HECA-452 epitopes = assay: Flow cytometric analysis of HECA-452 epitopes on human T-lymphocytes; assay type: cell-based
Method: Only positive cells, which were those cells with fluorescence above background autofluorescence and fluorochrome-conjugated secondary Ab staining, were analyzed.
For analysis of CLA expression on T-cells treated with glycoconjugate modifiers, CLA^+ T-cells were first pretreated with neuraminidase (0.1 U/ml at 37° C. for 1 h) to eliminate functional CLA and cleave all HECA-452 reactive epitopes from the cell surface (35–38). Since we wanted to investigate whether these compounds directly affected CLA expression and function, neuraminidase pretreatment followed by incubations with glycosylation modifiers allowed for examination of de novo synthesized CLA/HECA-452 epitopes re-expressed on the cell surface. After neuraminidase digestion, cells were then incubated with tunicamycin (0.02 mM) (an inhibitor of GlcNAc phosphotransferase, the initial step of N-glycosylation), swainsonine (0.23 mM) (an inhibitor of α-mannosidase II and complex-type N-glycosylation), 4-F-GlcNAc (0.05 mM) (putative inhibitor of poly-N-acetyllactosamine biosynthesis), BAG (an inhibitor of O-glycan biosynthesis) (<2 mM) or GlcNAc (5 mM) (negative control, naturally-occurring metabolic counterpart of 4-F-GlcNAc)for 30 h in the presence of human recombinant IL-2. […] Concentrations for BAG were selected based on maximal O-glycosylation inhibitory effects at non-growth inhibitory concentrations as previously reported (39). To determine a suitable concentration of 4-F-GlcNAc for examining glycoconjugate-modifying effects without influencing cell growth or protein synthesis, we performed preliminary growth inhibitory experiments of cells incubated with 4-F-GlcNAc for 2 cell doublings (˜36 h) at 37° C. (cell viability assessed by Trypan-blue exclusion).
as §2, with “ice.” for “ice. Cells were washed twice with PBS/2%FBS, resuspended in PBS and flow cytometry was performed on a FACScan apparatus equipped with an argon laser tuned at 488 nm (Becton Dickinson).”

[5] = system: E-selectin ligand activity of murine Th1 cells; assay: Flow chamber analysis of E-selectin binding on murine Th1 cells; assay type: cell-based, mouse; settings: neuraminidase treatment alone (0.1 U/ml for 1 hr at 37° C.)
Text: as §3

[6] = system: E-selectin ligand activity of CLA+ T-lymphocytes; assay: Parallel-plate flow chamber, CLA+ T-cell tethering and rolling on E-selectin chimera; assay type: cell-based, human; settings: 0.1% for 1 h at 37° C.
Method: (§4) To analyze the affects of 4-F-GlcNAc on the function of CLA on human T-cells, we examined the ability of 4-F-GlcNAc-treated (0.05, 0.1, 0.5 mM for 30 hrs) CLA-+ T-cells cultures to engage with immobilized E- and P-selectin chimera in the parallel-plate flow chamber. As described for flow cytometric analyses (Example 13), cells were first pretreated with neuraminidase to remove terminal sialic acid residues required for HECA-452 reactivity and for E- and P-selectin ligand activity of CLA. This approach allowed for the assessment on de novo synthesized CLA molecules.
(§5) Tethering and rolling of human T-cells on recombinant human E- and P-selectin-Ig chimera (provided by Dr. Robert Fuhlbrigge, Harvard Medical School) and human L-selectin-Ig (gift from Dr. Ray Camphausen, Wyeth/Genetics Institute, Inc., Cambridge, Mass.) were analyzed in the parallel-plate flow chamber under physiologic shear stress conditions (3). To prepare E- and P-selectin-Ig chimera spots, protein A (300 μg/15 μl 0.1M NaHCO3) was adsorbed to Ten-twenty-nine™ Petri dishes for 2 h at 37° C. Human serum albumin ([…] PBS) then added and incubated for 2 h at 37° C. to block non-specific binding sites. E-selectin-Ig (50 ng/50 μl PBS) or P-selectin-Ig (50 ng/50 μl PBS) solutions was pipetted directly over the pre-existing protein A spots for 18 h at 4° C. To prepare L-selectin-Ig spots, L-selectin-Ig (300 ng/15 μl PBS) or isotype control human IgG (300 ng/15 μl) were adsorbed directly to plastic (non-protein A-coated) for 18 h at 4° C. and blocked in 100% FBS for 2 h at 4° C.
(§6) CLA^+ T-cells or freshly isolated PBL were treated with neuraminidase and metabolic glycosylation inhibitors or with protease (bromelain) as described above, washed twice in HBSS, suspended at 2×10^6/ml in HBSS/10 mM HEPES/2 mM CaCl2 (H/H/Ca^++) and infused into the chamber over selectin chimeras. Protease treatment was performed to control for residual E-selectin activity not attributable to the expression of CLA on a protein scaffold. Cell tethering was permitted at 0.6 dynes/cm^2 for 1 min, then stepwise increments in shear stress every 15 sec were employed to a final shear stress level of 60 dynes/cm^2. The number of cells rolling/viewing field (at 100× magnification) was quantified at each level of shear stress in triplicates for a minimum of three experiments. […] Negative control experiments were performed in parallel, wherein cell binding was examined in H/H adhesion assay medium containing 5 mM EDTA as well as assaying cell binding to human IgG isotype control.
(§7) Utilizing the parallel-plate flow chamber under physiologic shear stress conditions, E-, P- and L-selectin ligand activities of human CLA^+ T-cells treated were analyzed in an identical manner as cells prepared for Western blotting and autoradiography studies.

[7] = system: L-selectin ligand activity of human CLA+ T-cells; assay: Parallel-plate flow chamber, CLA+ T-cell rolling on L-selectin chimera; assay type: cell-based; settings: 0.1% for 1 h at 37° C.
Method: as §5, §6, §7

[8] = system: P-selectin ligand activity of CLA+ T-lymphocytes; assay: Parallel-plate flow chamber, CLA+ T-cell tethering and rolling on P-selectin chimera; assay type: cell-based, human; settings: 0.1% for 1 h at 37° C.
Method: as §4, §5, §6, §7

Row | Substance | CD44 % Positive Cell Staining [1] [%] | P-selectin ligand activity of Th1 cells [2] | % Inhibition (lymphocyte binding) [3] | Mean Lymphocyte Binding [3] | HECA-452 Mean Channel Fluorescence [4] | HECA-452 Mean Channel Fluorescence (HECA-452 epitopes; CLA+ T-cells, neuraminidase (1 hr)) | E-selectin ligand activity of Th1 cells [5] | remaining E-selectin ligand activity [6] | L-selectin ligand activity [7] | P-selectin ligand activity [8] | HECA-452 expression by flow cytometry (HECA-452 epitopes; CLA^low T-cells or PBL after bromelain digestion)
1 | neuraminidase: Vibrio cholerae neuraminidase, cleaves terminal sialic acid residues | 100 | decreased E and P-selectin ligand activity to baseline levels | 98* % | 4.2 | 43 | 27 | decreased E and P-selectin ligand activity to baseline levels | – | – | – | –
2 | bromelain | – | – | – | – | – | – | – | < 25 % of control | completely eliminated | completely eliminated | relatively unchanged
